Experimental findings from patent publication US20090093423A2, “NOVEL 2-SUBSTITUTED METHYL PENAM DERIVATIVES” (Orchid Chemicals and Pharmaceuticals Limited, priority 2006, published 2009) are described below.

One test relates to A. baumanii 14501. Briefly: MIC, Agar Dilution Method. The note with it: inhibitor 1 μg/mL. The test is classed as cell-based. The procedure:
(§1) The novel compounds were tested for the in vitro antibacterial activities by the Agar Dilution Method as specified in documents published by NCCLS, now CLSI, USA. (National Committee for Clinical Laboratory Standards (NCCLS). 2003. Approved standard M7-A6. NCCLS, Villanova, Pa.).
(§2) Tazo was also dissolved in same buffer to get a solution of, e.g., 1 mg/mL. Novel penam derivatives described herein were dissolved in water to get a solution of, e.g., 1 mg/mL.
(§3) The novel compounds and Tazo were also tested individually. The bacterial inoculum was prepared by picking 3 to 5 well-isolated bacterial colonies with the same morphological appearance from an 18-24 h old culture and adjusting the turbidity of the saline suspension to 0.5 McFarland Turbidity Standard equivalent to a bacterial population of 1.5×10^8 colony forming units (CFU) per mL of suspension. The suspension was diluted 1:10 in saline (i.e. 0.5 mL suspension+4.5 mL saline) to get a bacterial population of 1.5×10^7 CFU/mL as inoculum. […] The inoculated petridishes were incubated at 35° C. in an ambient atmosphere for 16-20 h.

A further test relates to E. cloacae 11801. Briefly: MIC, Agar Dilution Method. The test is classed as cell-based. The settings on record: inhibitor 1 μg/mL. The method, then: as §1, §2, §3
For the next test, the system named is E. cloacae 11802. Briefly: MIC, Agar Dilution Method. The test is classed as cell-based. The settings on record: inhibitor 1 μg/mL. The method, then: as §1, §2, §3
Another test concerns E. coli ATCC 25922. Briefly: MIC, Agar Dilution Method. The test is classed as cell-based. The settings on record: inhibitor 1 μg/mL. The method, then: as §1, §2, §3
Another test relates to E. coli MRO 10002. The test is described as follows: MIC, Agar Dilution Method. The test is classed as cell-based. The note with it: strain 10002 (uncharacterized-ESBL clinical strain); inhibitor 1 μg/mL. The procedure: as §1, §2, §3
The test system of test [1] is E. coli MRO 10007. The test is described as follows: MIC, Agar Dilution Method. The test is classed as cell-based. The note with it: strain 10007 (uncharacterized-ESBL clinical strain); inhibitor 1 μg/mL. The procedure: as §1, §2, §3
Another test has as its system K. pneumoniae 11012. Briefly: MIC, Agar Dilution Method. The settings on record: inhibitor 1 μg/mL. The test is classed as cell-based. The method, then: as §1, §2, §3
For test [2], the system named is K. pneumoniae ATCC 700603. Briefly: MIC, Agar Dilution Method. The test is classed as cell-based. The note with it: for MIC of Piperacillin with different concentrations of Tazo or compound of Example 1: K. pneumoniae 700603, SHV-18. The procedure:
as §1, §2, §3

The subject of test [3] is K. pneumoniae MRO 11008. Briefly: MIC, Agar Dilution Method. The test is classed as cell-based. The note with it: strain 11008 (uncharacterized-ESBL clinical strain); inhibitor 1 μg/mL. The method, then: as §1, §2, §3
The test system of the next test is M. morganii 13701. Briefly: MIC, Agar Dilution Method. The test is classed as cell-based. The settings on record: inhibitor 1 μg/mL. The procedure:
as §1, §2, §3

Another test has as its system M. morganii 13702. The test is described as follows: MIC, Agar Dilution Method. The test is classed as cell-based. The settings on record: inhibitor 1 μg/mL. The method, then:
as §1, §2, §3

Another test deals with P. aeruginosa 15019. Briefly: MIC, Agar Dilution Method. The test is classed as cell-based. The settings on record: inhibitor 1 μg/mL. The procedure:
as §1, §2, §3

In another test the test system is P. aeruginosa ATCC 27853. Briefly: MIC, Agar Dilution Method. The settings on record: inhibitor 1 μg/mL. The test is classed as cell-based. The procedure: as §1, §2, §3
Another test concerns E. coli MRO 10006. Briefly: In vivo efficacy, infected mice. The settings on record: Swiss albino mice infected with E. coli MRO 10006; Piperacillin:inhibitor 4:1; 7-day survival. The procedure:
(§4) The efficacy studies were performed as described earlier (Kuck et al, 1989, Antimicrob. Agents. Chemother. 33(11): 1964-1969). Briefly, Swiss albino mice, 20+2 g, from in-house breeding facility were challenged by the intraperitoneal injection of bacterial suspensions in 0.5 mL of hog gastric mucin (10 to 100 50% lethal doses). […] All the untreated control animals died within 48 h of infection. In each experiment, in-house Tazo was used as an inhibitor control in four doses. Median (50%) effective dose (ED50) were determined by applying the Reed and Muench's method of the 7-day survival ratios.

Test [4] has as its system E. coli MRO 10007. The test is described as follows: In vivo efficacy, infected mice. The note with it: Swiss albino mice infected with E. coli MRO 10007; Piperacillin:inhibitor 4:1; 7-day survival. The procedure:
as §4

In test [5] the test system is K. pneumoniae MRO 11008. Briefly: In vivo efficacy, infected mice. The settings on record: Swiss albino mice infected with K. pneumoniae MRO 11008; Piperacillin:inhibitor 4:1; 7-day survival. The method, then: as §4

Structures are written as SMILES.

For `C[C@]1(Cn2ccnn2)[C@H](C(=O)O)N2C(=O)C[C@H]2S1(=O)=O` [Tazo], the “MIC of Piperacillin with Tazo or compounds described herein at 1 μg/mL” value (from here on “MIC of Piperacillin … at 1 μg/mL”) is 8 µg/mL with A. baumanii 14501; 2 µg/mL in the test with E. cloacae 11801; 64 µg/mL in the test with E. cloacae 11802; 2 µg/mL in the test with E. coli ATCC 25922; 128 µg/mL in the test on E. coli MRO 10002; 1 µg/mL with E. coli MRO 10007 [1]. Moreover, the “MIC of Piperacillin … at 1 μg/mL” value in the test with K. pneumoniae 11012 is 2 µg/mL; in test [2] (K. pneumoniae ATCC 700603, inhibitor 1 μg/mL), 16 µg/mL; with K. pneumoniae MRO 11008 [3], over 128 µg/mL; with M. morganii 13701, 16 µg/mL; in the test on M. morganii 13702, under 0.25 µg/mL; with P. aeruginosa 15019, 32 µg/mL. Besides, the “MIC of Piperacillin … at 1 μg/mL” value with P. aeruginosa ATCC 27853 came to 4 µg/mL. The “MIC of Piperacillin with different concentrations of Tazo or compound of Example 1” value in test [2] (inhibitor 1 μg/mL), in [2] (inhibitor 2 μg/mL) and in [2] (inhibitor 4 μg/mL) was 16 µg/mL each time. Further, the “ED50 of Piperacillin in combination with inhibitor” value was 37.22 mg/kg b.w in the test on E. coli MRO 10006, 58.81 mg/kg b.w in the test with E. coli MRO 10007 [4] and 99.48 mg/kg b.w in the test with K. pneumoniae MRO 11008 [5].
